Measured values published in US10053431B2, “Tetrahydro-benzodiazepinones” (priority 2013, dated 2018).
Where a name gives a salt, the structure may show the parent alone.

What was measured:
[1] = target: BIR2 domain of XIAP (Homo sapiens (Human), UniProt P98170, C202A/C213G); assay: TR-FRET assay for BIR2 (inhibition of binding of XIAP BIR2 domain to SMAC-derived Peptide A); settings: 6x His-tagged BIR2 domain (aa 124-240 of XIAP) 10 nM, Peptide A 20 nM, TR-FRET; read-out: IC50 BIR2
[2] = target: BIR3 domain of XIAP (Homo sapiens (Human), UniProt P98170); assay: TR-FRET assay for BIR3 (inhibition of binding of XIAP BIR3 domain to SMAC-derived Peptide A); settings: 6x His-tagged BIR3 domain (aa 241-356 of XIAP) 10 nM, Peptide A 20 nM, TR-FRET
Sequence of BIR3 domain of XIAP (P98170 241-356 with tags or gaps limits assumed): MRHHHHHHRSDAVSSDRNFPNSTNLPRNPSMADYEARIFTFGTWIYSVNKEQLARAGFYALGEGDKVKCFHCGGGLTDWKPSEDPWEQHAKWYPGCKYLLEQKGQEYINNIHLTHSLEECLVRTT

Sequence of BIR2 domain of XIAP (P98170 124-240 with tags or gaps C202A/C213G limits assumed): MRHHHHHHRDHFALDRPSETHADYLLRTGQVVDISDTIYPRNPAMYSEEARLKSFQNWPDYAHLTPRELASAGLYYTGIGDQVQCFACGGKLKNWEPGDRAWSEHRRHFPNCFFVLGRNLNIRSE

| SMILES | IC50 [1] | IC50 [2] |
| --- | --- | --- |
| CN[C@@H](C)C(=O)N[C@@H]1C(=O)N(CC(=O)Nc2c(F)cccc2F)c2ccccc2N(C(C)=O)[C@H]1C [Example 190, (S)-N-((2S,3S)-1-acetyl-5-(2-(2,6-difluorophenylamino)-2-oxoethyl)-2-methyl-4-oxo-2,3,4,5-tetrahydro-1H-benzo[b][1,4]diazepin-3-yl)-2-(methylamino)propanamide hydrochloride] | 85.3 nM | > 54800 nM |
| CN[C@@H](C)C(=O)N[C@@H]1C(=O)N(CC(=O)Nc2ccccc2)c2ccccc2N(C(C)=O)[C@H]1C [Example 191, (S)-N-((2S,3S)-1-acetyl-2-methyl-4-oxo-5-(2-oxo-2-(phenylamino)ethyl)-2,3,4,5-tetrahydro-1H-benzo[b][1,4]diazepin-3-yl)-2-(methylamino)propanamide hydrochloride] | 434 nM | > 54800 nM |
